Measurements: patent US9913870B2, “Method for stimulating AMP-activated protein kinase” (DHARMA BIOMEDICAL, LLC, priority 2012, dated 2018)
Entries after “also recorded” stand apart in the source; their conditions may differ.

Tests used:
human elastase = test: PMN-elastase expression ELISA in CCL-110 fibroblasts; format: cell-based; conditions: 24 hours
Procedure: CCL-110 skin fibroblast cells (10^6) were plated in EMEM containing 0.5% FBS and treated with increasing concentrations of GU-TC7 and CoQ10 for 24 hours in a CO2 incubator. The monolayer was lysed with 500 μL of RIPA buffer (50 mM Tris PH 7.4, 150 mM NaCl, 0.1% SDS, 0.5% Sodium deoxycholate, 1% Triton X-100 with one tablet for 25 mL of buffer) and protein concentration of the cellular extract was determined. Cellular extract (100 μg protein) was analyzed for the expression of human elastase using the PMN-Elastase ELISA kit form Alpco Immunoassays (Salem, N.H., U.S.A.).

MMP-1 = MMP-1 expression ELISA in CCL-110 fibroblasts, with and without TNF-α; format: cell-based, human; design: MMP-1 expression compared to untreated CCL-110 cells: dose or concentration left out as unconfirmed; conditions: for MMP-1 protein expression: CCL-110 fibroblasts, 24 hours, 0-100 μg mL−1, without TNF-α
Procedure: CCL-110 skin fibroblast cells (10^5 mL^−1) were plated in 0.5% FBS containing EMEM for 24 hours for starvation and then treated with increasing concentrations of GU-TC7 and CoQ10 (0-100 μg mL^−1) for another 24 hours with and without the positive control ([…]). The medium was harvested and analyzed for MMP-1 (ng mL^−1) using the human MMP-1 ELISA kit from R&D Systems (Minneapolis, Minn., U.S.A.) according to the manufacturer's instructions. MMP-1 ELISA studies were repeated three times, with duplicate samples in each assay.

type I collagen = test: Collagen type I expression ELISA in CCL-110 fibroblasts; format: cell-based, human; conditions: 24 hours, increasing concentrations
Procedure: CCL-110 human fibroblast cells (0.5×10^6) were treated with increasing concentrations of GU-TC7 and CoQ10 for 24 hours in 0.5% starving medium. On the next day, the medium was completely removed, washed with phosphate buffered saline once and lysed with 500 μL of 0.05 M acetic acid (pH 2.8-3.0) and 50 μL of pepsin solution by incubating at 4° C. for 48 hours. Later, […] of 10×TBS (1 M Tris, 2 M NaCl, 50 mM CaCl2) was added, and pH was adjusted to 8.0 with 1 N NaOH, and 50 μL of human pancreatic elastase was added followed by the incubation for another 48 hours at 4° C. The cells were scraped and transferred to eppendorf tubes and centrifuged for 10 min at 10 000 rpm. The supernatant was transferred to a new eppendorf tube, and protein concentration of the extract was determined. The type I collagen in the extract was analyzed using the human type 1 collagen ELISA kit from MD Bio-products (St. Paul, […]., U.S.A.).

CCL-110 skin fibroblasts = test: Cytotoxicity assay (MTT, Cell Proliferation I kit); format: cell-based, human; conditions: up to 100 μg mL−1, 24 hours
Procedure: CCL-110 skin fibroblasts were cultured and plated at a density of 0.5×10^4 cells per well in 96-well tissue culture multiwell plates in EMEM medium. On the next day when cells were attached, they were treated with increasing concentrations (0-100 μg mL^−1) of GU-TC7 and CoQ10 (CoQ10 purchased from Sigma Chemical Co., St. Louis, Mo., U.S.A.) at 37° C. for 24 hours in a CO2 incubator maintained at 5% CO2 and 95% air. Cell proliferation assay was performed using the Cell Proliferation I kit (Roche Biochemicals, Indianapolis, Ind., U.S.A.) according to the manufacturer's protocol. The percentage survival of cells at each concentration was calculated based on the untreated control and plotted against drug concentrations (Cochrane, C. B. et al. “Anticancer effects of Annona glabra plant extracts in human leukemic cell lines” Anticancer Res., 2008, 28:965-971). Cytotoxicity assay was repeated three times with triplicate samples in each and mean values calculated.

HepG2 cells = test: HDL and LDL/VLDL cholesterol quantification in HepG2 cells; format: cell-based, human
Procedure: HepG2 cells (2×106) were incubated with increasing concentrations of Glucodox (0-100 ug/ml) for 72 hours at 37° C. The cells, after washing with PBS, were lysed with methanol:choloroform […] solution. Both HDL an LDL fractions were separated and estimated using the HDL and LDL/VLDL quantification kit (MBL International Corporation, MA).

3T3-L1 adipocytes = test: Glucose uptake in differentiated adipocytes; format: cell-based; conditions: 72 hours
Procedure: 3T3-LI preadipocytes were used for glucose uptake and they were differentiated in the same manner as for adipocyte staining. The differentiated adipocytes (0.5×10^6) were treated with increasing concentrations (2-100 μg/ml) of guggul extracts for 72 hours in DMEM medium containing 1 μM insulin. 2,4-Thiazolidinedione (0.005 μM-0.1 μM) was used as a positive control for comparison. After 72 hours, the medium was replaced with starving medium (DMEM without FBS) for 2 hours at 37° C. and then with 3 ml KRH buffer (136 mM NaCl, 4.7 mM KCl, 1.25 mM CaCl2, 1.25 mM Mg SO4, 10 mM Hepes, pH 7.4) with 1 uM insulin at 37° C. for 30 min. For glucose uptake, 4.5 mg/ml glucose was added into the KRH buffer and plates were incubated for another 15 min. The plates were washed 4 times with KRH buffer, cells were lysed with RIPA buffer (0.5 ml/plate). The protein concentration of the extract was estimated and 500 ug extract was used for glucose estimation using the assay kit from Sigma Chemical Co., MO. The absorbance of the reaction mixture was measured at 340 nm and glucose concentration calculated.

HSP70 = HSP70 expression ELISA in Menadione-stressed HepG2 cells; format: cell-based, human; conditions: 50 μM, 3 hours
Procedure: A human liver cell line (HepG2) was used to study the expression of HSP70 in GU-MCT treated cells. The cells (2×10^6/4 ml) were grown in Eagles minimal essential medium and treated with 50 μM Menadione (Vitamin K analogue) for 3 hours in order to induce stress in the presence or absence of increasing concentrations of GU-MCT (0-100 μg/ml). The cells were harvested by scraping and cell lysate prepared by homogenizing cells in 0.5 ml of lysis buffer (R&D systems, Minneapolis, Minn.). Protein concentration of cell lysate was estimated and 10 μg protein was used for ELISA. The ELISA kit from R&D systems, MN was used to analyze the HSP70 protein expression (pg/ml) in the cell extract. The percentage of change in HSP70 expression was calculated based on the expression in untreated sample (100%).

## COC1=C(OC)C(=O)C(C/C=C(\C)CC/C=C(\C)CC/C=C(\C)CC/C=C(\C)CC/C=C(\C)CC/C=C(\C)CC/C=C(\C)CC/C=C(\C)CC/C=C(\C)CCC=C(C)C)=C(C)C1=O [CoQ10, coenzyme Q10]
Human elastase
  human elastase expression: no such inhibition was evident; also recorded: no inhibition of elastase at any evaluated concentration
MMP-1
  MMP-1 protein expression: inhibits MMP-1 at 5 μg mL^−1, the inhibition rate remained almost constant with increasing concentrations
MMP-1; listed as Coenzyme Q10
  MMP-1 protein expression: inhibition of MMP-1 expression
Type I collagen
  type I collagen synthesis: inhibitory trend was noticed with increasing doses
Type I collagen; listed as Coenzyme Q10
  type I collagen synthesis: enhanced synthesis of type I collagen
CCL-110 skin fibroblasts
  cytotoxic effects on CCL-110 skin fibroblasts: no cytotoxic effects
CCL-110 skin fibroblasts; listed as Coenzyme Q10
  cytotoxic effects on CCL-110 skin fibroblasts: little cytotoxicity

## CC[C@H](C)C(=O)O[C@H]1CCC=C2C=C[C@H](C)[C@H](CC[C@@H]3C[C@@H](O)CC(=O)O3)[C@H]21 [Mevastatin]
HepG2 cells
  HDL in cellular extracts and cell culture medium: not induced

## O=C1CSC(=O)N1 [2,4 Thiazolidinedione, 2,4-Thiazolidinedione]
3T3-L1 adipocytes
  glucose uptake (insulin sensitivity): more potent than the guggul extracts

## TNF-α
MMP-1; TNF-α treatment
  MMP-1 expression compared to untreated CCL-110 cells: three times

## CC1=CC(=O)c2ccccc2C1=O [Menadione]
HSP70
  down regulation of HSP70 expression: 40%
